Reference: ChEMBL document CHEMBL1201862, “PubChem BioAssay data set” (2004)
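Five compound concentrations were applied to cells in 96-well plates for 48 hours; endpoints were derived by simple linear interpolation of the resulting dose-response curve. Here, GI50 denotes the concentration required for 50% inhibition of growth.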 Activity calls are given as the source filed them. Cut-off read from the data, not from the text of the source: active = GI50 up to about 1.1 µM and inactive = higher.

Columns and labels:
Experiment in all cases: NCI-60 cell line screen, 48 h
786-0 = tested on: 786-0
MDA-MB-435 = tested on: MDA-MB-435
DU-145 = tested on: DU-145
SK-MEL-2 = tested on: SK-MEL-2
NCI-H23 = tested on: NCI-H23
M14 = tested on: M14
SF-295 = tested on: SF-295
SW-620 = tested on: SW-620
UACC-257 = tested on: UACC-257
ACHN = tested on: ACHN
BT-549 = tested on: BT-549
MOLT-4 = tested on: MOLT-4
SNB-75 = tested on: SNB-75
SF-268 = tested on: SF-268
RXF 393 = tested on: RXF 393
NCI-H522 = tested on: NCI-H522
A498 = tested on: A498
T47D = tested on: T47D
HCC 2998 = tested on: HCC 2998

Row | SMILES | GI50 (786-0) | GI50 (MDA-MB-435) | GI50 (DU-145) | GI50 (SK-MEL-2) | GI50 (NCI-H23) | GI50 (M14) | GI50 (SF-295) | GI50 (SW-620) | GI50 (UACC-257) | GI50 (ACHN) | GI50 (BT-549) | GI50 (MOLT-4) | GI50 (SNB-75) | GI50 (SF-268) | GI50 (RXF 393) | GI50 (NCI-H522) | GI50 (A498) | GI50 (T47D) | GI50 (HCC 2998)
1 | CN(C)CCn1c(=O)oc2cc(C(=O)CN3CCOCC3)ccc21 | > 100 µM (inactive) | > 100 µM (inactive) | > 100 µM (inactive) | > 100 µM (inactive) | > 100 µM (inactive) | > 100 µM (inactive) | > 100 µM (inactive) | > 100 µM (inactive) | > 100 µM (inactive) | > 100 µM (inactive) | > 100 µM (inactive) | > 100 µM (inactive) | > 100 µM (inactive) | > 100 µM (inactive) | > 100 µM (inactive) | – | – | – | –
2 | C1=N\CCN2CCN(CC/N=C\c3ccc(cc3)OCc3cccc(n3)COc3ccc/1cc3)CC2 | > 50 µM (inactive) | > 50 µM (inactive) | > 50 µM (inactive) | > 50 µM (inactive) | > 50 µM (inactive) | > 50 µM (inactive) | 46.2 µM (inactive) | > 50 µM (inactive) | > 50 µM (inactive) | > 50 µM (inactive) | > 50 µM (inactive) | > 50 µM (inactive) | > 50 µM (inactive) | > 50 µM (inactive) | 11.6 µM (inactive) | > 50 µM (inactive) | > 50 µM (inactive) | – | –
3 | COc1ccc2c(c1)c1c3c(ccc4ncn2c43)N(CCO)CCN=1 | 0.0736 µM (active) | 0.234 µM (active) | 0.282 µM (active) | 0.175 µM (active) | 0.191 µM (active) | 0.271 µM (active) | 0.19 µM (active) | 0.802 µM (active) | 0.391 µM (active) | 0.146 µM (active) | – | 0.026 µM (active) | 0.306 µM (active) | 0.221 µM (active) | 0.211 µM (active) | 0.106 µM (active) | 0.215 µM (active) | 0.263 µM (active) | 0.147 µM (active)
4 | O=C(N/N=C/c1ccccc1)c1c(-c2cccnc2)cnc2ccccc12 | > 100 µM (inactive) | – | > 100 µM (inactive) | > 100 µM (inactive) | > 100 µM (inactive) | > 100 µM (inactive) | 12 µM (inactive) | 59.6 µM (inactive) | 88.9 µM (inactive) | > 100 µM (inactive) | 79.4 µM (inactive) | > 100 µM (inactive) | 34.8 µM (inactive) | > 100 µM (inactive) | > 100 µM (inactive) | > 100 µM (inactive) | – | – | > 100 µM (inactive)
5 | CCOC(=O)C(C)c1nc2cc(F)c(F)cc2[nH]c1=O (stereo not drawn) | > 100 µM (inactive) | > 100 µM (inactive) | > 100 µM (inactive) | > 100 µM (inactive) | > 100 µM (inactive) | > 100 µM (inactive) | > 100 µM (inactive) | > 100 µM (inactive) | > 100 µM (inactive) | > 100 µM (inactive) | > 100 µM (inactive) | > 100 µM (inactive) | > 100 µM (inactive) | > 100 µM (inactive) | > 100 µM (inactive) | – | – | 22.9 µM (inactive) | > 100 µM (inactive)
6 | CCOC(=O)/C(=N\Nc1ccc(-n2c(C)nc3ccc(Br)cc3c2=O)cc1)C(C)=O | 59.2 µM (inactive) | 50.6 µM (inactive) | > 100 µM (inactive) | 70 µM (inactive) | 69.5 µM (inactive) | 62.4 µM (inactive) | 48 µM (inactive) | > 100 µM (inactive) | 84.5 µM (inactive) | 93.1 µM (inactive) | 47 µM (inactive) | 25.2 µM (inactive) | 30.7 µM (inactive) | 67.6 µM (inactive) | – | – | 52.7 µM (inactive) | 33.1 µM (inactive) | –
7 | C[n+]1c(-c2ccc(/C=N/NC(=S)N/N=C/c3ccc(-c4cn5ccsc5[n+]4C)cc3)cc2)cn2ccsc21 | > 100 µM (inactive) | 37.7 µM (inactive) | – | – | – | > 100 µM (inactive) | > 100 µM (inactive) | > 100 µM (inactive) | > 100 µM (inactive) | > 100 µM (inactive) | – | > 100 µM (inactive) | > 100 µM (inactive) | > 100 µM (inactive) | – | > 100 µM (inactive) | – | > 100 µM (inactive) | > 100 µM (inactive)
8 | CC(C)=C[C@@H]1C[C@H](C)c2c(O)cc(C)c3c2C1=C(C)C(=O)C3=O [ELISABATIN A] | 15.9 µM (inactive) | 15.6 µM (inactive) | 15.3 µM (inactive) | – | 13.5 µM (inactive) | 14 µM (inactive) | 14.7 µM (inactive) | 16.1 µM (inactive) | 17.6 µM (inactive) | 17.6 µM (inactive) | 13.7 µM (inactive) | 28.6 µM (inactive) | 17.4 µM (inactive) | 15 µM (inactive) | – | 15.3 µM (inactive) | 19.1 µM (inactive) | – | 21.8 µM (inactive)
